By chromatographic logP is commonly meant a lipophilicity value derived from retention on a column.

In one series the test system is Rhipicephalus sanguineus. Description: Rhipicephalus sanguineus in vitro contact test with adult brown dog ticks. The format is in vivo. As to conditions: application rate 5 μg/cm^2 (500 g/ha), after 48 h, adult ticks dead or moribund. As to the method:
(§1) For the coating of the test tubes, 9 mg of active compound are first dissolved in 1 ml of acetone p.a. and then diluted to the desired concentration with acetone p.a. 250 μl of the solution are distributed homogeneously on the inner walls and the base of a 25 ml test tube by turning and rocking on an orbital shaker (rocking rotation at 30 rpm for 2 h). With 900 ppm active compound solution and internal surface 44.7 cm^2, given homogeneous distribution, an area-based dose of 5 μg/cm^2 is achieved.
After the solvent has evaporated off, the tubes are populated with 5-10 adult dog ticks (Rhipicephalus sanguineus), sealed with a perforated plastic lid and incubated in a horizontal position in the dark at room temperature and ambient humidity. After 48 h, efficacy is determined. To this end, the ticks are knocked to the floor of the tube and incubated on a hotplate at 45-50° C. for not more than 5 min. Ticks which remain motionless on the floor or move in such an uncoordinated manner that they are unable to deliberately avoid the heat by climbing upwards are considered to be dead or moribund.
An efficacy of 100% means that all the ticks were dead or moribund. 0% efficacy means that none of the ticks had been harmed.

For another series, the system named is Amblyomma hebraeum. Put plainly: Amblyomma hebaraeum test (AMBYHE), tick nymphs immersion. The format is in vivo. Conditions: 100 ppm, after 42 days. How it is done: (§2) Solvent: dimethyl sulphoxide
To produce a suitable active compound formulation, 10 mg of active compound are mixed with 0.5 ml of dimethyl sulphoxide, and the concentrate is diluted with water to the desired concentration.
Tick nymphs (Amblyomma hebraeum) are placed into perforated plastic beakers and immersed in the desired concentration for one minute. The ticks are transferred on filter paper into a Petri dish and stored in a climate-controlled cabinet.

In series [1] the test system is cattle ticks (Boophilus microplus) Parkhurst strain, SP-resistant. Put plainly: Boophilus microplus dip test. It counts as in vivo. As to conditions: 100 ppm, engorged adult female ticks, after 7 days. As to the method: Test animals: cattle ticks (Boophilus microplus) Parkhurst strain, SP-resistant
as §2
10 mg of active compound are dissolved in 0.5 ml of dimethyl sulphoxide. For the purpose of producing a suitable formulation, the active compound solution is diluted with water to the concentration desired in each case.
This active compound preparation is pipetted into tubes. 8-10 engorged adult female cattle ticks (Boophilus microplus) are transferred into a further tube with holes. The tube is immersed into the active compound preparation, and all the ticks are completely wetted. After the liquid has run out, the ticks are transferred on filter discs into plastic dishes and stored in a climate-controlled room.
(§3) Efficacy is assessed after 7 days by laying of fertile eggs. Eggs which are not visibly fertile are stored in a climate-controlled cabinet until the larvae hatch after about 42 days. An efficacy of 100% means that none of the ticks has laid any fertile eggs; 0% means that all the eggs are fertile.

Series [2] can be described thus: log P determination by HPLC on reversed-phase column (C18), EEC Directive 79/831 Annex V.A8, acidic (formic acid). As to conditions: HPLC method a), acetonitrile/water with formic acid. The format is physicochemical.
Series [3] deals with Ctenocephalides felis. Description: Ctenocephalides felis oral test. The format is in vivo. Conditions: 100 ppm in citrated cattle blood, after 2 days.
Text: as §2
Dilution with citrated cattle blood gives the desired concentration.
About 20 unfed adult cat fleas (Ctenocephalides felis) are placed into a chamber which is closed at the top and bottom with gauze. A metal cylinder whose bottom end is closed with parafilm is placed onto the chamber. The cylinder contains the blood/active compound preparation, which can be imbibed by the fleas through the parafilm membrane.

The subject of a further series is Spodoptera frugiperda. Description: Spodoptera frugiperda spray test. As to conditions: 100 g/ha, caterpillars on maize leaf discs, after 7 days. It counts as in vivo. The text has this:
Solvent: 78.0 parts by weight of acetone

A further series deals with Lucilia cuprina. Description: Lucilia cuprina test. Conditions: 100 ppm, L1 larvae, after 2 days. It counts as in vivo. As to the method:
as §2
About 20 L1 larvae of the Australian sheep blowfly (Lucilia cuprina) are transferred into a test vessel containing minced horsemeat and the active compound preparation of the desired concentration.
After 2 days, the kill in % is determined.

For another series, the system named is Boophilus microplus. Description: Boophilus microplus injection test. The format is in vivo. As to conditions: 20 μg/animal, engorged adult female ticks, after 7 days. How it is done:
as §2
1 μl of the active compound solution is injected into the abdomen of 5 engorged adult female cattle ticks (Boophilus microplus). The animals are transferred into dishes and kept in a climate-controlled room.
as §3

Another series deals with Tetranychus urticae. Description: Tetranychus urticae spray test, OP-resistant (bean plants). It counts as in vivo. As to conditions: 20 ppm, after 7 days.
A further series relates to Phaedon cochleariae. Put plainly: Phaedon cochleariae spray test. Conditions: 100 g/ha, larvae on Chinese cabbage leaf discs, after 7 days.
Series [4] concerns Ctenocephalides felis. Description: Ctenocephalides felis in vitro contact test with adult cat fleas. The format is in vivo. As to conditions: application rate 5 μg/cm^2 (500 g/ha), after 48 h, adult cat fleas dead or moribund. How it is done: as §1
After the solvent has evaporated off, the tubes are populated with 5-10 adult cat fleas (Ctenocephalides felis), sealed with a perforated plastic lid and incubated in a horizontal position at room temperature and ambient humidity. After 48 h, efficacy is determined. To this end, the test tubes are stood upright and the fleas are knocked to the base of the tube. Fleas which remain motionless at the base or move in an uncoordinated manner are considered to be dead or moribund.
100% efficacy means that all the fleas were dead or moribund. 0% efficacy means that no fleas were harmed.

The subject of the next series is Musca domestica. Description: Musca domestica test. The format is in vivo. Conditions: 100 ppm, adult houseflies, after 2 days.
Text: as §2
Vessels containing a sponge treated with sugar solution and the active compound preparation of the desired concentration are populated with 10 adult houseflies (Musca domestica).

`Cn1nc(C(F)(F)C(F)(F)F)c(C(F)(F)F)c1-c1cc(-c2ccc(Cl)c(C(=O)NC3CC3)c2)no1` [Iap-1, 2-chloro-N-cyclopropyl-5-{5-[1-methyl-3-(pentafluoroethyl)-4-(trifluoromethyl)-1H-pyrazol-5-yl]-1,2-oxazol-3-yl}benzamide]: the efficacy in the series with Rhipicephalus sanguineus, in the series with Spodoptera frugiperda, in the series with Tetranychus urticae, with Phaedon cochleariae and in the series with Ctenocephalides felis [4] was 100% each time. Besides, the “efficacy (kill in %)” value in the series on Amblyomma hebraeum, in the series with Ctenocephalides felis [3], in the series with Lucilia cuprina and in the series on Musca domestica was 100% throughout. Moreover, the “efficacy (laying of fertile eggs)” value (in series [1]; in the series on Boophilus microplus) was 100% throughout. The molecule also came in with a chromatographic logP in series [2] of 4.06.

For the origin of these results see patent US10047076B2, “Halogen-substituted compounds” (BAYER CROPSCIENCE AKTIENGESELLSCHAFT, priority 2014, dated 2018).
